# Patent US20260242419A1, “A CYCLIC PEPTIDE FOR TRAPPING INTERLEUKIN-1 BETA” (Merck Sharp & Dohme LLC, priority 2023, published 2026)
# Non-standard residues stand in square brackets, D forms with d. Residues, ends and D or L forms follow the SMILES beside them. Trp(4-Cl)(βS-Me) = C[C@@H](c1c[nH]c2cccc(Cl)c12)[C@H](N)C(=O)O; dPro(3S-(4-Br-benzyl)) = O=C(O)[C@@H]1NCC[C@@H]1Cc1ccc(Br)cc1; Trp(βS-Me,4-F) = C[C@@H](c1c[nH]c2cccc(F)c12)[C@H](N)C(=O)O; Bip(4'-COOH) = N[C@@H](Cc1ccc(-c2ccc(C(=O)O)cc2)cc1)C(=O)O; dPro(4R-Bzl(4-F)) = O=C(O)[C@H]1C[C@@H](Cc2ccc(F)cc2)CN1; 1Nal(3S-Me) = C[C@@H](c1cccc2ccccc12)[C@H](N)C(=O)O; Ala(pyrimidin-5-yl) = N[C@@H](Cc1cncnc1)C(=O)O; Phe(4-COOH) = N[C@@H](Cc1ccc(C(=O)O)cc1)C(=O)O; Pro(cis-4-F) = O=C(O)[C@@H]1C[C@H](F)CN1; 4Pal = N[C@@H](Cc1ccncc1)C(=O)O; Orn = NCCC[C@H](N)C(=O)O; Dab = NCC[C@H](N)C(=O)O; Dap = NC[C@H](N)C(=O)O; Aib = CC(C)(N)C(=O)O
# Molecular target: T1, IL-1β (Homo sapiens, UniProt P01584)
# T1 construct: purchased BioLegend 579404
# Assay: IL-6 assay in MRC5 cells: inhibition of IL-1β induced IL-6 secretion (AlphaLISA)
# Format: cell-based
# Conditions: inhibition of IL-1β induced IL-6 secretion in MRC5 cells; read-out: MRC5 IC50
# Procedure, shortened: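 Compound was pre-incubated 1 h at ambient temperature with recombinant human IL-1β at 2λ EC80 before adding human lung fibroblast MRC5 cells (3000/well) in EMEM with 0.025% BSA. After overnight culture at 37 °C, 5% CO2, secreted IL-6 in conditioned medium was measured by AlphaLISA; IC50 from 4-parameter logistic fits.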
# T1 sequence (P01584 117-269): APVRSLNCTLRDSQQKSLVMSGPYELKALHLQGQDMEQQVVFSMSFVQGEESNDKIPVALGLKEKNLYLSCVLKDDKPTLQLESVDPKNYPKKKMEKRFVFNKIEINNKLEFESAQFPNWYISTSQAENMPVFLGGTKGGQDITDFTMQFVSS
row,SMILES,IC50
1,"C[C@@H](c1c[nH]c2cccc(F)c12)[C@@H]1NC(=O)[C@@H]2C[C@H](F)CN2C(=O)CNC(=O)[C@H](Cc2ccc(C(=O)O)cc2)NC(=O)[C@H](Cc2ccncc2)NC(=O)[C@H](Cc2ccc(-c3ccc(C(=O)O)cc3)cc2)NC(=O)[C@H]2[C@@H](Cc3ccc(Br)cc3)CCN2C(=O)CNC(=O)[C@H](CN)NC(=O)[C@H](CCC(N)=O)NC(=O)[C@H](Cc2cncnc2)NC(=O)C(C)(C)NC(=O)[C@H](Cc2c[nH]c3ccccc23)NC(=O)[C@H](CCC(=O)O)NC(=O)C(C)(C)NC1=O [Example 150] (cyclo([Bip(4'-COOH)][4Pal][Phe(4-COOH)]G[Pro(cis-4-F)][Trp(βS-Me,4-F)][Aib]EW[Aib][Ala(pyrimidin-5-yl)]Q[Dap]G[dPro(3S-(4-Br-benzyl))]))",0.019 nM
2,"C[C@@H](c1c[nH]c2cccc(F)c12)[C@@H]1NC(=O)[C@@H]2C[C@H](F)CN2C(=O)CNC(=O)[C@H](Cc2ccc(C(=O)O)cc2)NC(=O)[C@H](Cc2ccncc2)NC(=O)[C@H](Cc2ccc(-c3ccc(C(=O)O)cc3)cc2)NC(=O)[C@H]2[C@@H](Cc3ccc(Br)cc3)CCN2C(=O)CNC(=O)[C@H](CCCCN)NC(=O)[C@H](CCC(N)=O)NC(=O)[C@H](Cc2cncnc2)NC(=O)C(C)(C)NC(=O)[C@H](Cc2c[nH]c3ccccc23)NC(=O)[C@H](CCC(=O)O)NC(=O)C(C)(C)NC1=O [Example 152] (cyclo([Bip(4'-COOH)][4Pal][Phe(4-COOH)]G[Pro(cis-4-F)][Trp(βS-Me,4-F)][Aib]EW[Aib][Ala(pyrimidin-5-yl)]QKG[dPro(3S-(4-Br-benzyl))]))",0.031 nM

# Further lines, results first:
row,IC50,SMILES
1,0.032 nM,C[C@@H](c1c[nH]c2cccc(Cl)c12)[C@@H]1NC(=O)[C@@H]2C[C@H](F)CN2C(=O)CNC(=O)[C@H](Cc2ccc(C(=O)O)cc2)NC(=O)[C@H](Cc2ccncc2)NC(=O)[C@H](Cc2ccc(-c3ccc(C(=O)O)cc3)cc2)NC(=O)[C@H]2C[C@@H](Cc3ccc(F)cc3)CN2C(=O)CNC(=O)[C@H](CCN)NC(=O)[C@H](CCC(N)=O)NC(=O)[C@H](Cc2cncnc2)NC(=O)C(C)(C)NC(=O)[C@H](Cc2c[nH]c3ccccc23)NC(=O)[C@H](CCC(=O)O)NC(=O)C(C)(C)NC1=O [Example 148] (cyclo([Bip(4'-COOH)][4Pal][Phe(4-COOH)]G[Pro(cis-4-F)][Trp(4-Cl)(βS-Me)][Aib]EW[Aib][Ala(pyrimidin-5-yl)]Q[Dab]G[dPro(4R-Bzl(4-F))]))
2,0.024 nM,C[C@@H](c1cccc2ccccc12)[C@@H]1NC(=O)[C@@H]2C[C@H](F)CN2C(=O)CNC(=O)[C@H](Cc2ccc(C(=O)O)cc2)NC(=O)[C@H](Cc2ccncc2)NC(=O)[C@H](Cc2ccc(-c3ccc(C(=O)O)cc3)cc2)NC(=O)[C@H]2C[C@@H](Cc3ccc(F)cc3)CN2C(=O)CNC(=O)[C@H](CCN)NC(=O)[C@H](CCC(N)=O)NC(=O)[C@H](Cc2cncnc2)NC(=O)C(C)(C)NC(=O)[C@H](Cc2c[nH]c3ccccc23)NC(=O)[C@H](CCC(=O)O)NC(=O)C(C)(C)NC1=O [Example 149] (cyclo([Bip(4'-COOH)][4Pal][Phe(4-COOH)]G[Pro(cis-4-F)][1Nal(3S-Me)][Aib]EW[Aib][Ala(pyrimidin-5-yl)]Q[Dab]G[dPro(4R-Bzl(4-F))]))
3,0.022 nM,"C[C@@H](c1c[nH]c2cccc(F)c12)[C@@H]1NC(=O)[C@@H]2C[C@H](F)CN2C(=O)CNC(=O)[C@H](Cc2ccc(C(=O)O)cc2)NC(=O)[C@H](Cc2ccncc2)NC(=O)[C@H](Cc2ccc(-c3ccc(C(=O)O)cc3)cc2)NC(=O)[C@H]2[C@@H](Cc3ccc(Br)cc3)CCN2C(=O)CNC(=O)[C@H](CCCN)NC(=O)[C@H](CCC(N)=O)NC(=O)[C@H](Cc2cncnc2)NC(=O)C(C)(C)NC(=O)[C@H](Cc2c[nH]c3ccccc23)NC(=O)[C@H](CCC(=O)O)NC(=O)C(C)(C)NC1=O [Example 151] (cyclo([Bip(4'-COOH)][4Pal][Phe(4-COOH)]G[Pro(cis-4-F)][Trp(βS-Me,4-F)][Aib]EW[Aib][Ala(pyrimidin-5-yl)]Q[Orn]G[dPro(3S-(4-Br-benzyl))]))"
